Columns and labels:
mice = experiment: Acrolein-treated animal model (oral gavage) compared with vehicle control: glucose handling, renal function, kidney histology; type: in vivo
Experimental: To investigate the role of acrolein in the pathogenesis of diabetic nephropathy (DN), we compared the renal function of HFD/STZ-induced DN mice and mice treated with acrolein (2.5 mg/kg, p.o.) as shown in FIG. 2A.
We further explored the pathological abnormalities in HFD/STZ-induced DN mice and acrolein-treated mice.

[1] = system: acrolein-modified BSA (Acr-BSA) or acrolein-modified OVA (Acr-OVA); experiment: ELISA of hybridoma clones / purified Acr-PC antibody against acrolein-modified proteins; type: binding
Experimental: Monoclonal antibody preparation. Female BALB/c mice were immunized three times with the acrolein-treated ovalbumin (Acr-OVA). Spleen cells from the immunized mice were fused with NS0 murine myeloma cells and cultured in a hypoxantineyamethopterinythymidine selection medium. Culture supernatants of the hybridoma were screened using an ELISA assay, pairs of wells in the microtiter plates on which acrolein-treated BSA (Acr-BSA) was absorbed. After being incubated with 100 μl of hybridoma supernatants and washed with Tris-buffered saline (TBS) containing 0.05% Tween 20 (TBST), the wells were incubated with HRP-conjugated goat anti-mouse IgG, followed by a substrate solution containing TMB. Hybridoma cells corresponding to supernatants that were positive on Acr-BSA or Acr-OVA and negative on BSA or OVA were then cloned by limiting dilutions. After the repeated screening, five clones were obtained. […] After antibody purification from hybridoma clone #5, we confirmed the specificity and examined the antibody titer using a similar ELISA assay described above.

[2] = mice kidney, acrolein group vs control group (FIG. 2I)
[3] = mice, acrolein group vs control group (FIG. 2I)
[4] = antibody purified from hybridoma clone #5 (FIG. 3B)

| Molecule | collagen fiber content and degree of fibrosis, Sirius red staining (mice; [2]) | positive immunohistochemical staining for Acr-PC in the glomeruli and renal tubules (mice; [2]) | insulin intolerance, insulin tolerance tests (ITT) (mice; mice, acrolein 2.5 mg/kg p.o., 16 weeks, severity not as high as in HFD/STZ mice (FIGS. 2D-E)) | blood glucose (fasting plasma glucose) (mice; mice, acrolein 2.5 mg/kg p.o., oral gavage for 16 weeks, vs control group (FIG. 2B)) | kidney histology, H&E staining (mice; [3]) | kidney histology, PAS staining (mice; [3]) | urine albumin/creatinine ratio (UACR) (mice; mice, oral gavage of acrolein for 12 weeks (FIG. 2F)) | urine albumin/creatinine ratio (UACR) (mice; mice, oral gavage of acrolein for 16 weeks, vs control group (FIG. 2F)) | uric acid (UA) (mice; mice, oral gavage of acrolein for 16 weeks, vs control group (FIG. 2G)) | blood urea nitrogen (BUN) (mice; mice, oral gavage of acrolein for 16 weeks, vs control group (FIG. 2H)) | antibody titer in ELISA [1, 4] | specificity in ELISA [1, 4] | recognition of Acr-BSA or Acr-OVA in ELISA ([1]; hybridoma supernatant, among five clones (#1 to #5) (FIG. 3A)) |
| --- | --- | --- | --- | --- | --- | --- | --- | --- | --- | --- | --- | --- | --- |
| C=CC=O [acrolein] | increased evidently | significantly increased | induced insulin intolerance | did not increase blood glucose | disorderly, inflammatory cell infiltration in the interstitium and vacuolar lesion in the epithelial cells | glomerular mesangium expansion and extracellular matrix deposition | increased UACR, although not significantly | significant increase | significant increase | significant increase |  |  |  |
| clone #5: monoclonal antibody purified from hybridoma clone #5 recognizing acrolein-protein conjugate; heavy chain SEQ ID NO:1, light chain SEQ ID NO:2 (antibody, listed as Mus musculus, V domains shown) VH: QVQLQESGAELARPGASVRLSCKASGNIFPDHSINWVKQRTGQGLEWIGEIFHGSGNTYYNEKFKGKATLTADKSSTTVYLQLTSLTSEDSAVYFCARWVYGSSFFDVWGAGTTVTVSSAKTTPPSVYPLAP VL: DIVLTQTPASLAVSLGQTITIFCRASESVEYYGTNLMQWYQQKPGQPPRVLIYGASNVESGVPARFSGSGSGTDFSLNILPVEEDDIAMYFCQQSRKVPWTFGGGTKLEIKRADAAPTV |  |  |  |  |  |  |  |  |  |  | high | high specificity | most distinctive recognition of Acr-BSA or Acr-OVA |
